According to PubChem BioAssay AID248 (DTP/NCI, 2004):
“And” between values parts separate entries of the source, which are not always exact repeats. Equal values may be shown once. Inconclusive results and toxic doses are left out.

Test system: L1210 leukemia ip in BDF1 mice, survival T/C
Assay: NCI In Vivo Anticancer Drug Screen. Data for tumor model L1210 Leukemia (intraperitoneal) in B6D2F1 (BDF1) mice
Details: endpoint: mean survival time, higher = longer survival
In short: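 Tumor was transplanted into mice, which were then dosed with test compound or vehicle alone. Survival was recorded for each group, and the treated figure was expressed relative to the control figure.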

[1] = dose: 50.0 mg/kg/injection, schedule: Q01DX009 (ip), vehicle: Klucel (hydroxypropylcellulose) (HPC)
[2] = dose: 50.0 mg/kg/injection, schedule: Q04DX003 (ip), vehicle: Klucel (hydroxypropylcellulose) (HPC)
[3] = dose: 100.0 mg/kg/injection, schedule: Q01DX009 (ip), vehicle: Klucel (hydroxypropylcellulose) (HPC)
[4] = dose: 100.0 mg/kg/injection, schedule: Q04DX003 (ip), vehicle: Klucel (hydroxypropylcellulose) (HPC)
[5] = dose: 200.0 mg/kg/injection, schedule: Q04DX003 (ip), vehicle: Klucel (hydroxypropylcellulose) (HPC)
[6] = dose: 100.0 mg/kg/injection, schedule: Q01DX009 (ip), vehicle: saline with Tween-80
[7] = dose: 200.0 mg/kg/injection, schedule: Q01DX009 (ip), vehicle: saline with Tween-80
[8] = dose: 50.0 mg/kg/injection, schedule: Q01DX009 (ip), vehicle: saline with Tween-80
[9] = dose: 400.0 mg/kg/injection, schedule: Q04DX003 (ip), vehicle: Klucel (hydroxypropylcellulose) (HPC)
[10] = dose: 100.0 mg/kg/injection, schedule: Q01DX001 (ip), vehicle: saline
[11] = dose: 200.0 mg/kg/injection, schedule: Q01DX001 (ip), vehicle: saline
[12] = dose: 400.0 mg/kg/injection, schedule: Q01DX001 (ip), vehicle: saline
[13] = dose: 100.0 mg/kg/injection, schedule: Q01DX001 (ip), vehicle: carboxymethylcellulose (CMC)
[14] = dose: 200.0 mg/kg/injection, schedule: Q01DX001 (ip), vehicle: carboxymethylcellulose (CMC)
[15] = dose: 400.0 mg/kg/injection, schedule: Q01DX001 (ip), vehicle: carboxymethylcellulose (CMC)
[16] = dose: 12.5 mg/kg/injection, schedule: Q01DX009 (ip), vehicle: Klucel (hydroxypropylcellulose) (HPC)
[17] = dose: 100.0 mg/kg/injection, schedule: Q04DX002 (ip), vehicle: saline with Tween-80

SMILES: CCOC(=O)NN(C(=O)OCC)c1c(NN)n(C)c(=O)n(C)c1=O
- T/C (dose: 75.0 mg/kg/injection, schedule: Q04DX003 (ip), vehicle: saline): 107 % of control
- T/C (dose: 150.0 mg/kg/injection, schedule: Q04DX003 (ip), vehicle: saline): 93 % of control
- T/C (dose: 300.0 mg/kg/injection, schedule: Q04DX003 (ip), vehicle: saline): 91 % of control

SMILES: C/C(=N\O)C(C)(C)O
- T/C (dose: 100.0 mg/kg/injection, schedule: Q04DX002 (ip), vehicle: saline): 101 % of control
- T/C (dose: 200.0 mg/kg/injection, schedule: Q04DX002 (ip), vehicle: saline): 108 % of control
- T/C (dose: 400.0 mg/kg/injection, schedule: Q04DX002 (ip), vehicle: saline): 105 % of control

SMILES: CN1C(=O)N(Br)C(C)(C)C1=O
- T/C [1]: 95 % of control
- T/C [2]: 106 % of control
- T/C (dose: 100.0 mg/kg/injection, schedule: Q01DX001 (ip), vehicle: Klucel (hydroxypropylcellulose) (HPC)): 92 % of control
- T/C [3]: 98 % of control
- T/C [4]: 100 % of control
- T/C (dose: 200.0 mg/kg/injection, schedule: Q01DX001 (ip), vehicle: Klucel (hydroxypropylcellulose) (HPC)): 102 % of control
- T/C [5]: 97 % of control

SMILES: C[n+]1c(-c2ccc(Cl)c(Cl)c2)c2cc(N)ccc2c2ccccc21
- T/C (dose: 3.12 mg/kg/injection, schedule: Q01DX009 (ip), vehicle: water): 102 % of control
- T/C (dose: 6.25 mg/kg/injection, schedule: Q01DX009 (ip), vehicle: water): 110 % of control
- T/C (dose: 12.5 mg/kg/injection, schedule: Q01DX009 (ip), vehicle: water): 104 % of control
- T/C (dose: 12.5 mg/kg/injection, schedule: Q04DX003 (ip), vehicle: water): 105 % of control
- T/C (dose: 25.0 mg/kg/injection, schedule: Q04DX003 (ip), vehicle: water): 93 % of control

SMILES: O=C(N/N=C\c1ccc(Cl)cc1Cl)c1ccco1
- T/C (dose: 100.0 mg/kg/injection, schedule: Q01DX001 (ip), vehicle: other): 90 % of control
- T/C (dose: 200.0 mg/kg/injection, schedule: Q01DX001 (ip), vehicle: other): 96 % of control
- T/C (dose: 400.0 mg/kg/injection, schedule: Q01DX001 (ip), vehicle: other): 93 % of control

SMILES: N#CC(C#N)=Cc1ccc2ccccc2c1Br
- T/C [6]: 96 % of control
- T/C [7]: 94 % of control
- T/C (dose: 400.0 mg/kg/injection, schedule: Q01DX009 (ip), vehicle: saline with Tween-80): 90 % of control

SMILES: NC(=O)c1[nH]c(CCCc2ccccc2)nc1N
- T/C [8]: 102 % of control
- T/C (dose: 50.0 mg/kg/injection, schedule: Q04DX003 (ip), vehicle: saline with Tween-80): 103 % of control
- T/C (dose: 100.0 mg/kg/injection, schedule: Q01DX001 (ip), vehicle: saline with Tween-80): 110 % of control
- T/C [6]: 90 % of control
- T/C (dose: 100.0 mg/kg/injection, schedule: Q04DX003 (ip), vehicle: saline with Tween-80): 109 % of control
- T/C (dose: 200.0 mg/kg/injection, schedule: Q01DX001 (ip), vehicle: saline with Tween-80): 100 % of control
- T/C [7]: 102 % of control
- T/C (dose: 200.0 mg/kg/injection, schedule: Q04DX003 (ip), vehicle: saline with Tween-80): 100 % of control

SMILES: CCOC(=O)c1cnc(SC)nc1N(c1ccccc1)c1ccccc1
- T/C [4]: 90 % of control
- T/C [5]: 86 % of control
- T/C [9]: 95 % of control

SMILES: CCOC(=O)C(C#N)=P(c1ccccc1)(c1ccccc1)c1ccccc1
- T/C [8]: 96 % of control
- T/C [6]: 88 % of control
- T/C [7]: 96 % of control

SMILES: CCOC(=O)C1=C(NNC(N)=S)C2CCN1CC2
- T/C [10]: 105 % of control
- T/C [11]: 100 % of control
- T/C [12]: 101 % of control

SMILES: O=C(O)C1CC2CCC1C2 (configuration not stated)
- T/C (dose: 100.0 mg/kg/injection, schedule: Q01DX009 (ip), vehicle: saline): 100 % of control
- T/C (dose: 200.0 mg/kg/injection, schedule: Q01DX009 (ip), vehicle: saline): 104 % of control
- T/C (dose: 400.0 mg/kg/injection, schedule: Q01DX009 (ip), vehicle: saline): 92 % of control

SMILES: COC(=O)c1cc(C)cc(OC(=S)N(C)C)c1C
- T/C [13]: 96 % of control
- T/C (dose: 100.0 mg/kg/injection, schedule: Q01DX009 (ip), vehicle: carboxymethylcellulose (CMC)): 103 % of control
- T/C [14]: 93 % of control
- T/C (dose: 200.0 mg/kg/injection, schedule: Q01DX009 (ip), vehicle: carboxymethylcellulose (CMC)): 98 % of control
- T/C [15]: 96 % of control
- T/C (dose: 400.0 mg/kg/injection, schedule: Q01DX009 (ip), vehicle: carboxymethylcellulose (CMC)): 93 % of control
- T/C (dose: 800.0 mg/kg/injection, schedule: Q01DX009 (ip), vehicle: carboxymethylcellulose (CMC)): 103 % of control

SMILES: [Cl][Sb]([Cl])([c]1ccccc1)([c]1ccccc1)[c]1ccccc1
- T/C [16]: 95 % of control
- T/C (dose: 25.0 mg/kg/injection, schedule: Q01DX009 (ip), vehicle: Klucel (hydroxypropylcellulose) (HPC)): 93 % of control
- T/C (dose: 25.0 mg/kg/injection, schedule: Q04DX002 (ip), vehicle: saline with Tween-80): 93 % of control
- T/C (dose: 50.0 mg/kg/injection, schedule: Q01DX001 (ip), vehicle: carboxymethylcellulose (CMC)): 96 % of control
- T/C [1]: 102 % of control and 91 % of control
- T/C (dose: 50.0 mg/kg/injection, schedule: Q04DX002 (ip), vehicle: saline with Tween-80): 97 % of control
- T/C [13]: 96 % of control
- T/C [17]: 101 % of control
- T/C [4]: 102 % of control
- T/C [14]: 114 % of control
- T/C [5]: 96 % of control
- T/C [15]: 93 % of control
- T/C [9]: 105 % of control

SMILES: CC(=O)OCC1OC(SC2CCCCC2Br)C(OC(C)=O)C(OC(C)=O)C1OC(C)=O (configuration not stated)
- T/C [10]: 101 % of control
- T/C [11]: 104 % of control
- T/C [12]: 106 % of control

SMILES: N#CCC(=O)N/N=C/c1cc(Cl)cc(Cl)c1O
- T/C [17]: 108 % of control
- T/C (dose: 200.0 mg/kg/injection, schedule: Q04DX002 (ip), vehicle: saline with Tween-80): 97 % of control
- T/C (dose: 400.0 mg/kg/injection, schedule: Q04DX002 (ip), vehicle: saline with Tween-80): 93 % of control

SMILES: CN1CCC(=C2c3ccccc3C(O)c3ccccc32)CC1 (configuration not stated)
- T/C (dose: 3.12 mg/kg/injection, schedule: Q01DX009 (ip), vehicle: Klucel (hydroxypropylcellulose) (HPC)): 98 % of control
- T/C (dose: 6.25 mg/kg/injection, schedule: Q01DX009 (ip), vehicle: Klucel (hydroxypropylcellulose) (HPC)): 96 % of control
- T/C [16]: 93 % of control
- T/C (dose: 25.0 mg/kg/injection, schedule: Q04DX003 (ip), vehicle: Klucel (hydroxypropylcellulose) (HPC)): 98 % of control
- T/C [1]: 93 % of control
- T/C [2]: 98 % of control

SMILES: O=C(Oc1ccccc1Cl)c1ccc(Cl)c(Cl)c1
- T/C [3]: 98 % of control
- T/C [4]: 95 % of control
- T/C (dose: 200.0 mg/kg/injection, schedule: Q01DX009 (ip), vehicle: Klucel (hydroxypropylcellulose) (HPC)): 93 % of control
- T/C [5]: 90 % of control
- T/C (dose: 400.0 mg/kg/injection, schedule: Q01DX009 (ip), vehicle: Klucel (hydroxypropylcellulose) (HPC)): 90 % of control
- T/C [9]: 90 % of control

SMILES: [O-][N+](=Nc1ccc(Br)cc1)c1ccc(Br)cc1
- T/C (dose: 100.0 mg/kg/injection, schedule: Q04DX002 (ip), vehicle: Klucel (hydroxypropylcellulose) (HPC)): 95 % of control
- T/C (dose: 200.0 mg/kg/injection, schedule: Q04DX002 (ip), vehicle: Klucel (hydroxypropylcellulose) (HPC)): 100 % of control
- T/C (dose: 400.0 mg/kg/injection, schedule: Q04DX002 (ip), vehicle: Klucel (hydroxypropylcellulose) (HPC)): 89 % of control

SMILES: C=CCCC1(CCC(C)C)C(=O)NC(=O)NC1=O
- T/C (dose: 150.0 mg/kg/injection, schedule: Q01DX001 (ip), vehicle: saline): 116 % of control

SMILES: CS(=O)(=O)OCCN(CCOS(C)(=O)=O)c1ccc(C=Nc2ccc(C(=O)O)c(O)c2)cc1
- T/C (dose: 6.25 mg/kg/injection, schedule: Q04DX003 (ip), vehicle: saline with Tween-80): 117 % of control
- T/C (dose: 12.0 mg/kg/injection, schedule: Q01DX009 (ip), vehicle: saline with Tween-80): 168 % of control
- T/C (dose: 16.5 mg/kg/injection, schedule: Q04DX003 (ip), vehicle: saline with Tween-80): 112 % of control
- T/C (dose: 18.0 mg/kg/injection, schedule: Q01DX009 (ip), vehicle: saline with Tween-80): 170 % of control
- T/C (dose: 25.0 mg/kg/injection, schedule: Q04DX003 (ip), vehicle: saline with Tween-80): 121 % of control
- T/C (dose: 37.5 mg/kg/injection, schedule: Q04DX003 (ip), vehicle: saline with Tween-80): 113 % of control
